Experimental data taken from ChEMBL document CHEMBL3769397, “A new GLP-1 analogue with prolonged glucose-lowering activity in vivo via backbone-based modification at the N-terminus” (Bioorg Med Chem, 2016).

Legend:
[1] = molecular target: T1, DPP4 (dipeptidyl peptidase 4) (Homo sapiens, UniProt P27487); assay: Drug degradation assessed as recombinant human DPP4-mediated cleavage by measuring compound remaining after 72 hrs by RP-HPLC analysis; format: ADME; details: read-out: Stability
[2] = molecular target: T1, DPP4 (dipeptidyl peptidase 4); assay: Drug degradation assessed as recombinant human DPP4-mediated cleavage by measuring compound remaining after 48 hrs by RP-HPLC analysis; format: ADME; details: read-out: Stability
[3] = molecular target: T1, DPP4 (dipeptidyl peptidase 4); assay: Drug degradation assessed as recombinant human DPP4-mediated cleavage by measuring compound remaining after 24 hrs by RP-HPLC analysis; format: ADME; details: read-out: Stability
[4] = Retention time of compound over 30 mins by HPLC analysis; format: physicochemical; details: 0.5 h
Mus musculus [5] = assay: Reduction in blood glucose in Kunming mouse assessed as blood glucose level at 25 nmol/kg, ip at administered 0 mins followed by first glucose challenge at 40 mins followed by second glucose challenge at 310 mins and measured at 55 mins by glucose tolerance test (reference value: 4.9 to 6.3 mmol/L); format: functional
[6] = molecular target: Glucagon-like peptide 1 receptor (Homo sapiens, UniProt P43220); assay: Activation of human GLP1R expressed in HEK293 cells preincubated for 30 mins followed by addition of cAMP-d2 conjugate/cryptate conjugate incubated for 60 mins by fluorescence analysis; format: functional, cell-based
Sequence of Glucagon-like peptide 1 receptor (P43220 whole entry): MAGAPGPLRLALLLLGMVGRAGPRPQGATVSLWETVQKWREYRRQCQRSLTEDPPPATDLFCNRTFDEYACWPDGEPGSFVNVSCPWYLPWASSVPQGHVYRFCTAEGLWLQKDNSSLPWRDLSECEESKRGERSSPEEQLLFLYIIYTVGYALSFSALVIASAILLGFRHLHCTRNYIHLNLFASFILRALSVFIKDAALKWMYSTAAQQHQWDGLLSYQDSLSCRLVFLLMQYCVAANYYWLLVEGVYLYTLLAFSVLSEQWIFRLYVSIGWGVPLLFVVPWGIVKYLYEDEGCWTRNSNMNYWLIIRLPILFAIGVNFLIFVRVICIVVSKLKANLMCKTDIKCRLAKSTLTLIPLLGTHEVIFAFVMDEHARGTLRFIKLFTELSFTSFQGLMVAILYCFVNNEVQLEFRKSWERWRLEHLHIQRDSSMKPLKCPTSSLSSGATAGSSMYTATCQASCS

Mus musculus [7] = assay: Reduction in blood glucose in Kunming mouse assessed as blood glucose level at 25 nmol/kg, ip at administered 0 mins followed by first glucose challenge at 40 mins followed by second glucose challenge at 310 mins and measured at 160 mins by glucose tolerance test (reference value: 4.9 to 6.3 mmol/L); format: functional
Mus musculus [8] = assay: Reduction in blood glucose in Kunming mouse assessed as blood glucose level at 25 nmol/kg, ip at administered 0 mins followed by first glucose challenge at 40 mins followed by second glucose challenge at 310 mins and measured at 385 mins by glucose tolerance test (reference value: 4.9 to 6.3 mmol/L); format: functional
[9] = molecular target: T1, DPP4 (dipeptidyl peptidase 4); assay: Half life of compound assessed as recombinant human DPP4-mediated cleavage by RP-HPLC analysis; format: ADME
Mus musculus [10] = assay: Reduction in blood glucose in Kunming mouse assessed as blood glucose level at 25 nmol/kg, ip at administered 0 mins followed by first glucose challenge at 40 mins followed by second glucose challenge at 310 mins and measured at 430 mins by glucose tolerance test (reference value: 4.9 to 6.3 mmol/L); format: functional
Mus musculus [11] = assay: Reduction in blood glucose in Kunming mouse assessed as blood glucose level at 25 nmol/kg, ip at administered 0 mins followed by first glucose challenge at 40 mins followed by second glucose challenge at 310 mins and measured at 40 mins by glucose tolerance test (reference value: 4.9 to 6.3 mmol/L); format: functional
Mus musculus [12] = assay: Reduction in blood glucose in Kunming mouse assessed as blood glucose level at 25 nmol/kg, ip at administered 0 mins followed by first glucose challenge at 40 mins followed by second glucose challenge at 310 mins and measured at 350 mins by glucose tolerance test (reference value: 4.9 to 6.3 mmol/L); format: functional
Mus musculus [13] = assay: Reduction in blood glucose in Kunming mouse assessed as blood glucose level at 25 nmol/kg, ip at administered 0 mins followed by first glucose challenge at 40 mins followed by second glucose challenge at 310 mins and measured at 115 mins by glucose tolerance test (reference value: 4.9 to 6.3 mmol/L); format: functional
[14] = molecular target: T1, DPP4 (dipeptidyl peptidase 4); assay: Drug degradation assessed as recombinant human DPP4-mediated cleavage by measuring compound remaining after 12 hrs by RP-HPLC analysis; format: ADME; details: read-out: Stability
Mus musculus [15] = assay: Reduction in blood glucose in Kunming mouse assessed as blood glucose level at 25 nmol/kg, ip at administered 0 mins followed by first glucose challenge at 40 mins followed by second glucose challenge at 310 mins and measured at 325 mins by glucose tolerance test (reference value: 4.9 to 6.3 mmol/L); format: functional
Mus musculus [16] = assay: Reduction in blood glucose in Kunming mouse assessed as blood glucose level at 25 nmol/kg, ip at administered 0 mins followed by first glucose challenge at 40 mins followed by second glucose challenge at 310 mins and measured at 310 mins by glucose tolerance test (reference value: 4.9 to 6.3 mmol/L); format: functional
[17] = molecular target: T1, DPP4 (dipeptidyl peptidase 4); assay: Drug degradation assessed as recombinant human DPP4-mediated cleavage by measuring compound remaining after 96 hrs by RP-HPLC analysis; format: ADME; details: read-out: Stability
Mus musculus [18] = assay: Reduction in blood glucose in Kunming mouse assessed as blood glucose level at 25 nmol/kg, ip at administered 0 mins followed by first glucose challenge at 40 mins followed by second glucose challenge at 310 mins and measured at 80 mins by glucose tolerance test (reference value: 4.9 to 6.3 mmol/L); format: functional
Mus musculus [19] = assay: Reduction in blood glucose in Kunming mouse assessed as blood glucose AUC at 25 nmol/kg, ip at administered 0 mins followed by first glucose challenge at 40 mins measured at 80 mins by glucose tolerance test relative to control; format: functional; set-up: scale not given: the % may be the effect or the level left
Mus musculus [20] = assay: Reduction in blood glucose in Kunming mouse assessed as blood glucose peak value at 25 nmol/kg, ip at administered 0 mins followed by first glucose challenge at 40 mins measured at 80 mins by glucose tolerance test relative to control; format: functional; set-up: scale not given: the % may be the effect or the level left
Mus musculus [21] = assay: Reduction in blood glucose in Kunming mouse assessed as blood glucose AUC at 25 nmol/kg, ip at administered 0 mins followed by first glucose challenge at 40 mins followed by second glucose challenge at 310 mins and measured at 325 mins by glucose tolerance test relative to control; format: functional; set-up: scale not given: the % may be the effect or the level left
Mus musculus [22] = assay: Reduction in blood glucose in Kunming mouse assessed as blood glucose peak value at 25 nmol/kg, ip at administered 0 mins followed by first glucose challenge at 40 mins followed by second glucose challenge at 310 mins and measured at 325 mins by glucose tolerance test relative to control; format: functional; set-up: scale not given: the % may be the effect or the level left

T1 sequence (P27487 whole entry): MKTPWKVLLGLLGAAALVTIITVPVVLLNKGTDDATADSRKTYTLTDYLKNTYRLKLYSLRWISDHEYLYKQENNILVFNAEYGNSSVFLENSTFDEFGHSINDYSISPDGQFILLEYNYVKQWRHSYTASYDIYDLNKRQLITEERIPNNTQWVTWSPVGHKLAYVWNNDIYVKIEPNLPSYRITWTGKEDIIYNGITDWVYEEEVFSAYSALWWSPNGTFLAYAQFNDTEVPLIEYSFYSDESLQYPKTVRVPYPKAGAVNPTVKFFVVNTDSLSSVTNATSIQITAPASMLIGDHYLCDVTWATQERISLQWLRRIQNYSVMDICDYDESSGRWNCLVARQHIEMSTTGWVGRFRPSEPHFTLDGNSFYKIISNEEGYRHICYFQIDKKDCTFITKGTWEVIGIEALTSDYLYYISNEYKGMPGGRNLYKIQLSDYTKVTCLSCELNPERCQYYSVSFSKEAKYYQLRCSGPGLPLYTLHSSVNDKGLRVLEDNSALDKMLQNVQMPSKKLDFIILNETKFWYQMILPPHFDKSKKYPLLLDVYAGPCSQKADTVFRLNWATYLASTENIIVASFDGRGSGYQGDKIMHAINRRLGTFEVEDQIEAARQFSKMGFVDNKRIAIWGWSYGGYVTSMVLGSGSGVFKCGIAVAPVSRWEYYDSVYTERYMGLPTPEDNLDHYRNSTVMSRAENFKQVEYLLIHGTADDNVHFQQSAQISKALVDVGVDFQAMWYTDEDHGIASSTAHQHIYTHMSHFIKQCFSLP

| remaining at 72 h [1] [%] | remaining at 48 h [2] [%] | remaining at 24 h [3] [%] | Retention_time [4] [min] | EC50 [6] [nM] | half-life [9] [h] | remaining at 12 h [14] [%] | remaining at 96 h [17] [%] | SMILES | Activity (Mus musculus [5]) [mmol/L] | Activity (Mus musculus [7]) [mmol/L] | Activity (Mus musculus [8]) [mmol/L] | Activity (Mus musculus [10]) [mmol/L] | Activity (Mus musculus [11]) [mmol/L] | Activity (Mus musculus [12]) [mmol/L] | Activity (Mus musculus [13]) [mmol/L] | Activity (Mus musculus [15]) [mmol/L] | Activity (Mus musculus [16]) [mmol/L] | Activity (Mus musculus [18]) [mmol/L] | further results |
| --- | --- | --- | --- | --- | --- | --- | --- | --- | --- | --- | --- | --- | --- | --- | --- | --- | --- | --- | --- |
| 100 | 100 | 100 | 13.997 | 0.0766 | > 96 | 100 | 100 | CC[C@H](C)[C@H](NC(=O)[C@H](Cc1ccccc1)NC(=O)[C@H](CCC(=O)O)NC(=O)[C@H](CCCCN)NC(=O)[C@H](C)NC(=O)[C@H](C)NC(=O)[C@H](CCC(N)=O)NC(=O)CNC(=O)[C@H](CCC(=O)O)NC(=O)[C@H](CC(C)C)NC(=O)[C@H](Cc1ccc(O)cc1)NC(=O)[C@H](CO)NC(=O)[C@H](CO)NC(=O)[C@@H](NC(=O)[C@H](CC(=O)O)NC(=O)[C@H](CO)NC(=O)[C@@H](NC(=O)[C@H](Cc1ccccc1)NC(=O)[C@@H](NC(=O)CNC(=O)[C@H](CCC(=O)O)NC(=O)[C@H]1CCC[C@@H]1NC(=O)[C@@H](N)Cc1cnc[nH]1)[C@@H](C)O)[C@@H](C)O)C(C)C)C(=O)N[C@@H](C)C(=O)N[C@@H](Cc1c[nH]c2ccccc12)C(=O)N[C@@H](CC(C)C)C(=O)N[C@H](C(=O)N[C@@H](CCCCN)C(=O)NCC(=O)N[C@@H](CCCNC(=N)N)C(N)=O)C(C)C | 14.8 | 9.1 | 11.4 | 8.7 | 7 | 19.2 | 11.5 | 22.8 | 6.2 | 15.9 |  |
|  |  |  |  |  |  |  |  | CC[C@H](C)[C@H](NC(=O)[C@H](Cc1ccccc1)NC(=O)[C@H](CCC(=O)O)NC(=O)[C@H](CCCCN)NC(=O)[C@H](C)NC(=O)[C@H](C)NC(=O)[C@H](CCC(N)=O)NC(=O)CNC(=O)[C@H](CCC(=O)O)NC(=O)[C@H](CC(C)C)NC(=O)[C@H](Cc1ccc(O)cc1)NC(=O)[C@H](CO)NC(=O)[C@H](CO)NC(=O)[C@@H](NC(=O)[C@H](CC(=O)O)NC(=O)[C@H](CO)NC(=O)[C@@H](NC(=O)[C@H](Cc1ccccc1)NC(=O)[C@@H](NC(=O)CNC(=O)[C@H](CCC(=O)O)NC(=O)[C@H](C)CNC(=O)[C@@H](N)Cc1cnc[nH]1)[C@@H](C)O)[C@@H](C)O)C(C)C)C(=O)N[C@@H](C)C(=O)N[C@@H](Cc1c[nH]c2ccccc12)C(=O)N[C@@H](CC(C)C)C(=O)N[C@H](C(=O)N[C@@H](CCCCN)C(=O)NCC(=O)N[C@@H](CCCNC(=N)N)C(N)=O)C(C)C | 13.5 | 6.9 | 8.1 | 7.8 | 6.1 | 16.5 | 10.8 | 23.4 | 5.4 | 16.6 |  |
| 100 | 100 | 100 | 13.751 | 0.0329 | > 96 | 100 | 100 | CC[C@H](C)[C@H](NC(=O)[C@H](Cc1ccccc1)NC(=O)[C@H](CCC(=O)O)NC(=O)[C@H](CCCCN)NC(=O)[C@H](C)NC(=O)[C@H](C)NC(=O)[C@H](CCC(N)=O)NC(=O)CNC(=O)[C@H](CCC(=O)O)NC(=O)[C@H](CC(C)C)NC(=O)[C@H](Cc1ccc(O)cc1)NC(=O)[C@H](CO)NC(=O)[C@H](CO)NC(=O)[C@@H](NC(=O)[C@H](CC(=O)O)NC(=O)[C@H](CO)NC(=O)[C@@H](NC(=O)[C@H](Cc1ccccc1)NC(=O)[C@@H](NC(=O)CNC(=O)[C@H](CCC(=O)O)NC(=O)CCNC(=O)[C@@H](N)Cc1cnc[nH]1)[C@@H](C)O)[C@@H](C)O)C(C)C)C(=O)N[C@@H](C)C(=O)N[C@@H](Cc1c[nH]c2ccccc12)C(=O)N[C@@H](CC(C)C)C(=O)N[C@H](C(=O)N[C@@H](CCCCN)C(=O)NCC(=O)N[C@@H](CCCNC(=N)N)C(N)=O)C(C)C | 12.8 | 7.8 | 9.8 | 6.8 | 6.5 | 16.8 | 11.8 | 19.6 | 6.3 | 16 | Activity (Mus musculus [19]): 63%; Activity (Mus musculus [20]): 61%; Activity (Mus musculus [21]): 81%; Activity (Mus musculus [22]): 84% |
